Measurements published in US8383637B2, “2-amino-quinazoline derivatives useful as inhibitors of β-secretase (BACE)” (Jansssen Pharmaceutica N.V., priority 2004, dated 2013).
Several values for one entry are separate records, joined by “and”; a condition that tells them apart may be missing. Equal entries are not always repeated. Where two headings read alike, the source gives them in different places.

Assays:
Type in all cases: biochemical
[1] = target: T1, β-secretase(BACE) (Homo sapiens, UniProt P56817); test: BACE Assay-1 (MCA-substrate, IC50)
T1 construct: purchased Panvera
Experimental: The following standards are reagents were used in this assay: Sodium Citrate trisodium salt dihydrate (Sigma), Citric Acid monohydrate (Merck), PEG8000 (Sigma), MCA-substrate (Bachem), β-secretase (BACE) (Panvera), 96-well plate zwart (Costar (Elscolab)), StatVal (Bachem).
The following standard assay buffer solution was prepared and used in this assay: 0.05 M, pH 5.0 mixture of sodium citrate trisodium salt dihydrate (9.56 g), citric acid monohydrate (3.68 g) and PEG8000 (0.50 g).
The MCA-substrate stock solution was prepared by mixing 10 mg MCA-substrate with 5 mL DMSO for a final solution concentration of 2.0 mg/mL. The substrate work solution was prepared by mixing 0.1 mL substrate in 1.90 mL assay buffer for a final concentration of 0.05 mM. The β-secretase (BACE) work solution was prepared by mixing 8 μL BACE in 2 mL assay buffer for a final concentration of 10 μg/mL.
The screen procedure for this assay was as follows. 60 μL of assay buffer was pippeted into each well of a 96-well plate. To each well was then pipetted 1 μL of test compound at the selected concentration. To each well was then added 20 μL of the β-secretase work solution and 20 μL of the MCA-substrate stock solution.
The procedure for the blank was as follows. 80 μL of assay buffer was pipetted into each well to be used as a blank control. To each well was then added 1 μL of DMSO and 20 μL of MCA-substrate solution in each well.
The procedure for the positive control was as follows. 60 μL of assay buffer was pipetted into each well to be used as a positive control. To each well was then added 1 μL of DMSO, 20 μL of BACE work solution and 20 μL of MCA-substrate stock solution.
For test compounds, measured at multiple concentrations, the measured T0 and T60 values were used to calculate an IC50 value using Graphpad Software (or PIR).

[2] = target: T1, β-secretase(BACE); test: BACE Assay-2 (FS1 substrate, IC50 and Ki); conditions: procedure of Example 159, FS1 substrate
[3] = target: T1, β-secretase(BACE); test: BACE FS1% Inhibition Assay; conditions: FS1 substrate; for % Inhibition (FS) 3 μM / inhibition at 3 µM: 3 μM test compound; for inhibition at 3 µM: read-out: % Inhibition (FS) 3 μM; for inhibition at 10 µM: read-out: % Inhibition (FS) 10 μM; for inhibition at 0.3 µM / % Inhibition (FS) 0.3 μM: 0.3 μM test compound; for inhibition at 0.3 µM: read-out: % Inhibition (FS) 0.3 μM; for inhibition at 1 µM / % Inhibition (FS) 1 μM: 1 μM test compound; for inhibition at 1 µM: read-out: % Inhibition (FS) 1 μM
In short: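 Human BACE (4 μg/mL working solution) preincubated 20 min at room temperature with compound, then FS1 substrate (300 μg/mL working solution) added and incubated 1 h at room temperature. Percent inhibition calculated at each compound concentration against blank and vehicle controls.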

[4] = procedure of Example 158, read-out: IC50 μM (158)

T1 sequence (P56817 46-501): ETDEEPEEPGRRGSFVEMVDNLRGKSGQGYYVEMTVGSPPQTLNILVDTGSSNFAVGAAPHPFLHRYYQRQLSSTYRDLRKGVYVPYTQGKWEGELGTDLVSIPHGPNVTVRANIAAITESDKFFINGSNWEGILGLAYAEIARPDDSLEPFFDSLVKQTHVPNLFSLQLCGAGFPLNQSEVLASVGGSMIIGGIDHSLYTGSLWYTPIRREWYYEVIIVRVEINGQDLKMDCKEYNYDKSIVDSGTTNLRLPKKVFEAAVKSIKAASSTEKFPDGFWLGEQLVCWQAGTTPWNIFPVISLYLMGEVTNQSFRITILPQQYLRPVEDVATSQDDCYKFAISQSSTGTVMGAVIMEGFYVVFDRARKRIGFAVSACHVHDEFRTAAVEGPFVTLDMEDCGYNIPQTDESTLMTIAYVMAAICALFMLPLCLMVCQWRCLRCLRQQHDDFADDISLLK

| Compound | IC50 [1, 4] [µM] | Ki ([2]; read-out: Ki μM (159)) | % Inhibition (FS) 3 μM [3] [%] | % Inhibition (FS) 10 μM ([3]; 10 μM test compound) [%] | inhibition at 3 µM [3] [%] | inhibition at 10 µM ([3]; 10 μM test compound) [%] | inhibition at 0.3 µM [3] [%] | inhibition at 1 µM [3] [%] | % Inhibition (FS) 0.3 μM [3] | % Inhibition (FS) 1 μM [3] | % Inhibition (FS) 3 μM ([3]; 3 µM) [%] | IC50 [1] [µM] | Ki ([2]; Ki μM (159)) |
| --- | --- | --- | --- | --- | --- | --- | --- | --- | --- | --- | --- | --- | --- |
| CCCC(CCCC(=O)N(C)C1CCN(C)CC1)N1Cc2cc(Oc3ccccc3)ccc2N=C1N (stereo not drawn) [Compound 106] | 0.15 | 0.23 µM | 103 | 114 | – | – | – | – | – | – | – | – | – |
| CN(C(=O)CCCCN1Cc2cc(Oc3cccc(NS(=O)(=O)c4ccccc4)c3)ccc2N=C1N)C1CCCCC1 [Compound 114] | 0.079 | 0.27 µM | – | – | 109 | 126 | – | – | – | – | – | – | – |
| CC(C)C(=O)NCCN1Cc2cc(Oc3ccccc3)ccc2N=C1N [Compound 121] | 0.58 | 0.32 µM | – | – | 103 | 117 | – | – | – | – | – | – | – |
| CCCCC(CC)C(=O)NCCN1Cc2cc(Oc3ccccc3)ccc2N=C1N (stereo not drawn) [Compound 122] | 0.19 | 0.17 µM | – | – | 101 | 123 | – | – | – | – | – | – | – |
| NC1=Nc2ccc(Oc3ccccc3)cc2CN1CCNC(=O)C1CC1 [Compound 123] | 1.2 | 0.3 µM | – | – | 71 | 116 | – | – | – | – | – | – | – |
| CCCC(CCC(=O)N(CC)C1CCCCC1)N1Cc2cc(Oc3ccccc3)ccc2N=C1N (stereo not drawn) [Compound 127] | 0.16 | 0.18 µM | – | – | 79 | 102 | – | – | – | – | – | – | – |
| CCCC(CCC(=O)NC1CCCCC1)N1Cc2cc(Oc3ccccc3)ccc2N=C1N (stereo not drawn) [Compound 129] | 0.1 | 0.12 µM | – | – | 113 | 113 | – | – | – | – | – | – | – |
| NC1=Nc2ccc(Oc3ccccc3)cc2CN1CCNC(=O)C1CCC1 [Compound 130] | 0.45 | 0.21 µM | – | – | 101 | 123 | – | – | – | – | – | – | – |
| NC1=Nc2ccc(Oc3ccccc3)cc2CN1CCNC(=O)C12CC3CC(CC(C3)C1)C2 [Compound 131] | 0.1 | 0.17 µM | – | – | 115 | 130 | – | – | – | – | – | – | – |
| CCCCS(=O)(=O)NCCN1Cc2cc(Oc3ccccc3)ccc2N=C1N [Compound 135, Butane-1-sulfonic acid [2-(2-amino-6-phenoxy-4H-quinazolin-3-yl)-ethyl]-amide] | 0.89 | 0.29 µM | – | – | 89 | 118 | – | – | – | – | – | – | – |
| CN(C(=O)c1cccc(CN2Cc3cc(-c4ccccc4)ccc3N=C2N)c1)C1CCCCC1 [Compound 138] | 0.023 | 0.06 µM | – | – | 114 | – | 98 | 113 | – | – | – | – | – |
| CC(C)(C)C(=O)NCCN1Cc2cc(Oc3ccccc3)ccc2N=C1N [Compound 141] | 0.15 | 0.08 µM | – | – | 100 | 102 | – | – | – | – | – | – | – |
| Cc1noc(C)c1-c1ccc2c(c1)CN(Cc1cccc(C(=O)N(C)C3CCCCC3)c1)C(N)=N2 [Compound 159] | 0.89 | 0.28 µM | – | – | 92 | – | 34 | 65 | – | – | – | – | – |
| COc1ccc(NC(=O)C(C)(C)C)c(-c2ccc3c(c2)CN(Cc2cccc(C(=O)N(C)C4CCCCC4)c2)C(N)=N3)c1 [Compound 160] | 0.54 | 0.12 µM | – | – | 102 | – | 51 | 78 | – | – | – | – | – |
| NC1=Nc2ccc(Oc3ccccc3)cc2CN1CCC(=O)NC1C2CC3CC(C2)CC1C3 (stereo not drawn) [Compound 221, N-Adamantan-2-yl-3-(2-amino-6-phenoxy-4H-quinazolin-3-yl) propionamide] | 0.011 | – | – | – | 118 | – | 100 | 115 | 110% | 119% | 121 | 0.023 | 0.025 µM and 0.029 µM |

The next lines start with results.

| IC50 [1, 4] [µM] | Ki ([2]; read-out: Ki μM (159)) | % Inhibition (FS) 3 μM [3] [%] | % Inhibition (FS) 10 μM ([3]; 10 μM test compound) [%] | inhibition at 3 µM [3] [%] | inhibition at 10 µM ([3]; 10 μM test compound) [%] | inhibition at 0.3 µM [3] [%] | inhibition at 1 µM [3] [%] | % Inhibition (FS) 0.3 μM [3] | % Inhibition (FS) 1 μM [3] | % Inhibition (FS) 3 μM ([3]; 3 µM) [%] | Compound | IC50 [1] [µM] | Ki ([2]; Ki μM (159)) |
| --- | --- | --- | --- | --- | --- | --- | --- | --- | --- | --- | --- | --- | --- |
| 0.11 | 0.1 µM | – | – | 109 | – | 67 | 96 | – | – | – | CN(C(=O)c1cccc(CN2Cc3cc(-c4ccsc4)ccc3N=C2N)c1)C1CCCCC1 [Compound 164] | – | – |
| 0.19 | 0.28 µM | – | – | 101 | – | < 30 | 72 | – | – | – | COc1cccc(-c2ccc3c(c2)CN(Cc2cccc(C(=O)N(C)C4CCCCC4)c2)C(N)=N3)c1 [Compound 165] | – | – |
| 0.014 | 0.03 µM and 0.05 µM | – | – | 113 | – | 100 | 112 | 91% | 110% | 118 | COc1ccccc1-c1ccc2c(c1)CN(Cc1cccc(C(=O)N(C)C3CCCCC3)c1)C(N)=N2 [Compound 167, 3-[2-Amino-6-(2-methoxy-phenyl)-4H-quinazolin-3-ylmethyl]-N-cyclohexyl-N-methyl-benzamide] | – | – |
| 0.058 | 0.08 µM | – | – | 109 | – | 80 | 104 | – | – | – | CN(C(=O)c1cccc(CN2Cc3cc(-c4ccccc4O)ccc3N=C2N)c1)C1CCCCC1 [Compound 169] | – | – |
| 0.085 | 0.07 µM | – | – | 111 | – | 85 | 106 | – | – | – | CN(C(=O)c1cccc(CN2Cc3cc(-c4ccccc4CO)ccc3N=C2N)c1)C1CCCCC1 [Compound 174] | – | – |
| 0.19 | 0.11 µM | – | – | 107 | – | 50 | 93 | – | – | – | NC1=Nc2ccc(Oc3ccccc3)cc2CN1CCC(=O)NC1CCCCC1 [Compound 178] | – | – |
| 0.058 | 0.19 µM | – | – | 106 | – | 48 | 93 | – | – | – | CCCC(CCC)C(=O)NCCN1Cc2cc(Oc3ccccc3)ccc2N=C1N [Compound 183] | – | – |
| 0.015 | 0.11 µM | – | – | 120 | – | 65 | 96 | – | – | – | NC1=Nc2ccc(Oc3ccccc3)cc2CN1CCNC(=O)C1(c2ccc(Cl)cc2)CCCC1 [Compound 196] | – | – |
| 0.062 | 0.23 µM | – | – | 107 | – | – | – | <30% and 54% | 66% and 97% | 115 | CCC(c1cccc(C(=O)N(C)C2CCCCC2)c1)N1Cc2cc(Oc3ccccc3)ccc2N=C1N (stereo not drawn) [Compound 204, 3-[1-(2-Amino-6-phenoxy-4H-quinazolin-3-yl)-propyl]-N-cyclohexyl-N-methyl-benzamide] | – | – |
| 0.078 | 0.27 µM | – | – | 106 | – | < 30 | 62 | – | – | – | NC1=Nc2ccc(Oc3ccccc3)cc2CN1CCNC(=O)NC12CC3CC(CC(C3)C1)C2 [Compound 206, 1-Adamantan-1-yl-3-[2-(2-amino-6-phenoxy-4H-quinazolin-3-yl)-ethyl]-urea] | – | – |
| 0.19 | 0.1 µM | – | – | 101 | – | < 30 | 70 | – | – | – | NC1=Nc2ccc(Oc3ccccc3)cc2CN1CCNC(=S)NC12CC3CC(CC(C3)C1)C2 [Compound 214, 1-Adamantan-1-yl-3-[2-(2-amino-6-phenoxy-4H-quinazolin-3-yl)-ethyl]-thiourea] | – | – |
| 0.23 | 0.4 µM | – | – | 106 | – | 39 | 71 | – | – | – | NC1=Nc2ccc(Oc3ccccc3)cc2CN1CCNC(=O)NC1CCCCC1 [Compound 215] | – | – |
| 0.13 | 0.1 µM | – | – | 114 | – | 75 | 101 | – | – | – | CC1CCCCC1C(=O)NCCN1Cc2cc(Oc3ccccc3)ccc2N=C1N (stereo not drawn) [Compound 218] | – | – |
| 0.31 | 0.17 µM | – | – | 108 | – | 51 | 85 | – | – | – | COC1CCCC(C(=O)NCCN2Cc3cc(Oc4ccccc4)ccc3N=C2N)C1 (stereo not drawn) [Compound 219] | – | – |
| 0.45 | 0.2 µM | – | – | 102 | – | 103 | 72 | – | – | – | CC(C)OC(=O)NCCN1Cc2cc(Oc3ccccc3)ccc2N=C1N [Compound 220, [2-(2-Amino-6-phenoxy-4H-quinazolin-3-yl)-ethyl]-carbamic acid isopropyl ester] | – | – |
